Earlier results in US20250122241A1, “CYCLIC PEPTIDE IMMUNOMODULATORS” (BRISTOL-MYERS SQUIBB COMPANY, priority 2021, published 2025).

Details: oral administration; extensive first-pass metabolism in the liver

bioavailability: about 10%
Compound: CCCC1O[C@@H]2C[C@H]3[C@@H]4CCC5=CC(=O)C=C[C@]5(C)[C@H]4[C@@H](O)C[C@]3(C)[C@]2(C(=O)CO)O1 (stereo partly shown) [budesonide]
